Reference: patent US12465579B2, “Compositions and methods for treating homocystinuria and other conditions” (THE REGENTS OF THE UNIVERSITY OF COLORADO, A BODY CORPORATE, priority 2019, dated 2025)

Columns and labels:
[1] = test system: DMGDH; assay: Western blot analysis of hepatic DMGDH protein levels in HO HCU mice; assay type: in vivo, mouse
Method: In other exemplary experiments, it is noted that methotrexate (MTX) treatment represses hepatic DMGDH protein levels even further in experimental HO HCU mice which supports the hypothesis that expression of this enzyme is sensitive to THF levels. In accordance with these methods, Western blot analysis of hepatic DMGDH protein levels in HO HCU mice in the presence and absence of methotrexate levels were assessed.
As illustrated herein, FIGS. 10A-10B represents a Western blot comparing the level of DMGDH and GAPDH (control) for untreated (HO) and treated (HO+MTX, methotrexate) mice (HO) using the HCU mouse model (10A); and further illustrated in a histogram plot (10B), level of intensity of DMDGH for untreated (HO) and treated (HO+MTX, methotrexate) mice (HO) using the HCU mouse model. This figure represents an N=9 per group and this figure is a representative of three independent experiments. P<0.05.
In another exemplary method, experiments were performed to measure levels of a critical enzyme in treated and untreated mouse models (HO).
As found in FIGS. 15A-15B, a Western blot comparing the level of DMGDH and GAPDH (control) for untreated (HO), treated (e.g. formate agent) and treated with standard treatment combinations (e.g. formate and trimethylglycine (e.g. betaine)) using the HCU mouse model (15A); and further illustrating in a histogram plot (15B), level of intensity of DMDGH for untreated (HO), treated (e.g. formate agent) and treated with standard treatment combinations (e.g. formate and trimethylglycine (e.g. betaine)) using the HCU mouse model in certain embodiments disclosed herein. Western blotting analysis of hepatic DMGDH protein levels in HO HCU mice in the presence and absence of either about 5.0% sodium formate alone or in combination with about 3.0% betaine given ad libitum in drinking water for about one week. N=9 per group. This figure is representative of three independent experiments.

[2] = test system: A394V mice; assay: Plasma Hcy in NKH knock-in mouse model (GLDC mutation A394V) challenged with glycine
Method: In another exemplary experiment, NKH as represented in the experimental mouse model, A394V mice was tested for levels of Hcy in the NKH mouse model when exposed to various agents.
In this experiment, a knock-in mouse model with the clinically observed human GLDC mutation A394V engineered into the mouse gene was used. This mutation retains a small amount of residual enzyme that is sufficient to create a viable model.
Data shown has an N=5 animals per group and is representative of 2 independent experiments.

[3] = test system: HO HCU mice; assay: Plasma Hcy, cysteine and metabolite levels in HO HCU mice treated via drinking water; assay type: in vivo, mouse; conditions: for further lowering of Hcy due to betaine in the presence of the amino acid: about 3.0% w/v amino acid combined with about 3.0% w/v betaine in drinking water, one week; for plasma Hcy / plasma cysteine levels: HO mice, about 3.0% (w/v) in drinking water ad libitum for one week, normal methionine diet
Method: It is noted that WT mice (n=6) were untreated controls. HO HCU mice (N=8, 4 of each sex in each group) were either untreated or treated with about 3.0% (w/v) glycine w/v or about 3.0% (w/v) serine given in drinking water supplied ad libitum for one week.
In accordance with these methods, HO HCU mice (N=8, 4 of each sex in each group) were treated with either about 3.0% glycine w/v or about 3.0% w/v serine given in drinking water supplied ad libitum for one week in the presence and absence of about 3.0% w/v betaine. Plasma samples were taken from the mice at various times and Hcy levels were determined.
Plasma Hcy levels were determined from HO HCU mice (n=8 per group) in the presence and absence of either about 5.0% w/v sodium formate alone or in combination with about 3.0% betaine given in drinking water given ad libitum. […]

[4] = test system: Cbs null mouse; assay: Hcy lowering, survival and liver injury in Cbs null mouse model; assay type: in vivo; conditions: Cbs null mice with severe liver damage
Description: In one exemplary method, an acceptable mouse mode of HCU is used to study various effects of exemplary compositions disclosed herein on aberrant Hcy levels. To date, the majority of research on HCU has been performed using a CBS knockout mouse model. These Cbs (−/−) animals suffer from pronounced liver injury and typically die within 2-3 weeks of birth.
In an alternative experiment, agents were used to verify involvement of BHMT in the homocystinuria treatment process. In these exemplary methods, a Cbs null mouse was used where severe liver damage to the mouse model interferes with standard HCU treatments to reduce Hcy.

[5] = test system: Cbs null mouse; conditions: betaine treatment; cited from earlier work
[6] = test system: HO HCU mice; assay: Long-term betaine treatment of HO HCU mice without methionine-restriction; assay type: in vivo, mouse
[7] = test system: hepatic 5-methyl-THF; assay: Hepatic metabolomic analysis of 5-MeTHF in HO mice; assay type: in vivo, mouse; conditions: betaine 3% w/v in drinking water ad libitum
Description: As illustrated in one example, see FIG. 2, HCU (HO) induces a significant accumulation of hepatic 5-methyl-THF which by sequestering one carbon units has the potential to decrease the available pool of THF available to the betaine pathway for lowering Hcy. FIG. 2 illustrates an example of hepatic metabolomic analysis of HO and WT controls compared to an HO mouse treated with betaine. Comparative hepatic metabolomic analysis of HO mice and WT controls illustrate about a 10-fold accumulation in the MTHFR product 5-MeTHF. Betaine treatment alone reduced 5-MeTHF by about 15-25%. Data illustrated in FIG. 2 is derived from the livers of 8 (4 male, 4 female) individual HO or WT or HO Betaine mice per group. Betaine was given at 3% w/v in drinking water given ad libitum. P<0.0001 vs WT.

[8] = test system: BHMT; assay: BHMT protein level in liver during long-term betaine treatment; assay type: in vivo
Description: By this observation, it raised the possibility that the BHMT protein is impaired in its function. […] In this context, further induction of BHMT expression observed in a long-term betaine treatment group could constitute a not entirely successful compensatory mechanism designed to mitigate the effects of diminished BHMT activity.
In other embodiments disclosed herein, it was observed that BHMT is unusual in that it constitutes approximately 2% of total protein in the liver. During long-term betaine treatment this concentration rises to up to four to five fold (about 8-10%) of total hepatic protein which is an enormous amount of protein that would require zinc for its function. The increased requirement for zinc cannot be supplied because zinc cannot be stored in mammals and must be supplemented by diet or other source. Unfortunately, dietary sources of zinc are typically very high in protein and therefore precluded by the low methionine diet required of HCU patients. Therefore, long term betaine treatment in HCU could induce a significant zinc deficiency in a subject, impairing BHMT protein function and concomitantly reducing the betaine response.
BHMT is unusual in that it constitutes approximately 2% of total protein in the liver. […]

[9] = test system: mouse model of MTR deficient homocystinuria; assay: Betaine supplementation in mouse model of MTR deficient homocystinuria; assay type: in vivo
Description: In the following exemplary experiments, it was observed that betaine supplementation was limited as observed in a mouse model of MTR deficient homocystinuria. As noted in FIG. 1, Homocystinuria can occur due to defects in the Hcy remethylation enzymes MTR or MTHFR. It was observed that supplementation of betaine in certain experiments with a mouse model of MTR deficient homocystinuria lead to reduction of tHcy of approximately 25% having little effect on the condition. This modest decrease in betaine mediated treatment of MTR deficient homocystinuria has also been observed in human patients with this form of homocystinuria.

[10] = test system: DHFR; assay: Western blotting analysis of hepatic DHFR protein levels in HO HCU mice; assay type: in vivo, mouse; conditions: betaine treated, not restored to control levels
Method: In other exemplary experiments, levels of DHFR were assessed using the HO mouse model in untreated and betaine treated mice. […] In addition, intensity levels of DHFR were measured and further illustrated in a histogram plot. As illustrated, level of intensity of DHFR for wild type (WT), treated (HO+betaine) and untreated mice (HO) using the HCU mouse model was examined. It is noted that the level of DHFR in betaine treated mice was not restored to control levels and only about a 5-10% improvement was observed (4B). (See FIGS. 4A-4B). As noted herein, Western blotting analysis of hepatic DHFR protein levels in WT and HO HCU mice. N=9 per group.

[11] = betaine treatment of the HO model

## O=C[O-].[Na+] [sodium formate]
[1]; about 5.0% sodium formate alone in drinking water, about one week
  hepatic DMGDH expression levels: restore normal expression levels
[1]; about 5.0% sodium formate with about 3.0% betaine in drinking water, about one week
  response level for restoring DMGDH, formate agent combined with betaine: surprisingly synergistic
[2]; A394V NKH mice, concomitant formate about 5.0% w/v in drinking water with about 5.0% w/v glycine
  glycine induced increase in Hcy: significantly reduced
[3]; HO HCU mice, about 5.0% w/v sodium formate alone in drinking water, normal methionine/protein diet
  plasma Hcy levels: significantly lowered
[3]; HO HCU mice, about 5.0% w/v sodium formate with about 3.0% betaine in drinking water, normal protein diet
  Hcy levels, formate combined with the standard treatment (betaine): near normal levels
[4]
  lowering of Hcy in the Cbs null mouse model: unable to lower Hcy

## N[C@@H](Cc1c[nH]c2ccccc12)C(=O)O [tryptophan]
[3]; HO HCU mice
  further lowering of Hcy due to betaine in the presence of the amino acid: also observed

## O=S(=O)([O-])[O-].[Zn+2] [Zinc sulfate]
[3]; 8 HO HCU mice, 0.05% w/v Zinc sulfate in drinking water ad libitum for one week
  average decrease in plasma homocysteine: 25%
[3]; HO HCU mice, zinc supplementation with betaine, data not shown
  decrease in betaine efficacy during long term betaine treatment, zinc combined with betaine: prevented

## N[C@@H](CO)C(=O)O [serine]
[3]; HO HCU mice
  further lowering of Hcy due to betaine in the presence of the amino acid: reduced and/or completely prevented
[3]
  plasma Hcy: significantly lowered
  plasma cysteine levels: increased
[4]
  lowering of Hcy in the Cbs null mouse model: unable to lower Hcy

## C[N+](C)(C)CC(=O)O [betaine, N,N,N-trimethylglycine]
[5]
  fertility of female Cbs (-/-) mice: restored fertility
  lowering of Hcy in Cbs (-/-) mice: without significantly lowering Hcy
  severe liver injury, steatosis, and fibrosis in surviving Cbs (-/-) mice: not significantly improved
  survival of Cbs (-/-) mice: improved survival
[6]; long-term betaine treatment, no methionine-restriction
  ability of betaine treatment to lower homocysteine: diminished significantly over time
[6]; prolonged betaine treatment
  coagulation phenotype: reversion to a hypercoagulative phenotype
  plasma levels of TNF-α and IL-Ip: significant increase
[3]; HO mouse model, betaine alone, as previously observed
  reduction of Hcy levels by standard treatment alone: 15-25%
[3]; [11]
  AdoHcy levels: fivefold decrease
  decrease in plasma AdoMet: 40%
  plasma DMG: increase
  plasma MG: increase
  plasma cysteine: increase
  plasma methionine: increase
[7]
  reduction of hepatic 5-MeTHF: 15-25%
[8]
  levels of BHMT protein: significantly higher levels
[8]; approximately 2% normally
  BHMT as share of total hepatic protein: 8-10%
[9]
  reduction of tHcy: approximately 25%
[10]
  improvement of hepatic DHFR level: 5-10%

## CNCC(=O)O [sarcosine, sarcosine (methylglycine)]
[3]; HO HCU mice
  further lowering of Hcy due to betaine in the presence of the amino acid: also observed

## NCC(=O)O [glycine]
[2]; mouse, in vivo
  plasma Hcy on glycine challenge: massive increase
[3]; HO HCU mice
  further lowering of Hcy due to betaine in the presence of the amino acid: reduced and/or completely prevented
[3]
  plasma Hcy: significantly lowered
  plasma cysteine levels: increased
[4]
  lowering of Hcy in the Cbs null mouse model: unable to lower Hcy

## N[C@@H](Cc1c[nH]cn1)C(=O)O [histidine]
[3]; HO HCU mice
  further lowering of Hcy due to betaine in the presence of the amino acid: also observed

## CN(Cc1cnc2nc(N)nc(N)c2n1)c1ccc(C(=O)N[C@@H](CCC(=O)O)C(=O)O)cc1 [methotrexate]
[1]; methotrexate treatment
  hepatic DMGDH protein levels: represses
